We go through 25 compounds from patent publication US8791100B2 (Novartis AG, priority 2010, dated 2014).

Broadly, the IC50 is the concentration needed to halve the response being measured.

For one assay, the target named is human S1P1 receptors (Homo sapiens (Human), UniProt P21453). Kind of assay: Human S1P1 Receptor Calcium FLIPR Antagonist Assay (HeLa Gα16 S1P1). Conditions: relative antagonism vs probing agonist GNF-AC-1 at EC80, HeLa-S1P1/Gα16 cells. In kind it is cell-based. From the text: Human S1P1 Receptor Calcium FLIPR Antagonist Assay
Sequence of human S1P1 receptors (P21453 whole entry): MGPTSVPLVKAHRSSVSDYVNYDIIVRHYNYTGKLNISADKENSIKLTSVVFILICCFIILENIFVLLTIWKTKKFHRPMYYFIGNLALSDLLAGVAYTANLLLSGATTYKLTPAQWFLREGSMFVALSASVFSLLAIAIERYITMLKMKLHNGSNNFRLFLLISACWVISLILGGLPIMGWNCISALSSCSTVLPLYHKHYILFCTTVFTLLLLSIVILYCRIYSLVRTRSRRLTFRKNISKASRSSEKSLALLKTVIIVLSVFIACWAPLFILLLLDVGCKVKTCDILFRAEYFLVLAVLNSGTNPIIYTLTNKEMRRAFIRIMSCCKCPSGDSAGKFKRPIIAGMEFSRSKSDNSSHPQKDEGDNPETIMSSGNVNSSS
The assay measures intracellular changes of Ca^2+ mediated by the synthetic probing agonist 3-{[2-(2-Trifluoromethyl-biphenyl-4-yl)-benzo[b]thiophen-5-ylmethyl]-amino}-propionic acid (GNF-AC-1) in the HeLa-S1P1/Gα16 cell clone 1: HeLa (human cervix carcinoma, ATCC CCL2) cells stably expressing N-terminally myc-tagged human S1P1 receptors (GenBank™ accession No. NM_001400; UNIPROT P21453) and promiscuous Gα16 protein (GenBank™ accession number M63904, Swissprot P30679) are cultured at 37° C., 5% CO2, and 95% relative humidity. The cells are plated in 384 well black plates (10′000 cells per well). After 24 hours the cells are loaded with Fluo-4-AM (1.6 μM in HBSS and 2.5 mM probenicid) for 1 hour at 37° C. After washing, the cells are transferred to the FLIPR. The test compounds are added at different concentrations (≦100 μM) in HBSS in the presence of 0.1% BSA and changes in fluorescence are recorded (indication of agonism). The probing agonist is added 20-30 minutes afterwards to the wells at a concentration giving 80% of the maximal activity (EC80). After each addition, time points are collected as follows: 20 time points (2 seconds) before the addition of the agonist (Fmin) and 60 time points (1 or 2 seconds) after the addition of the probing agonist. This allows the determination of the maximal fluorescence (Fmax). The ratio (Fmax−Fmin)/Fmin is plotted against the log of the concentration of the test compounds and the IC50 (relative antagonism) is calculated using the XLfit-4 software. […] A concentration-response curve of the probing agonist is determined on each plate in parallel.

In assay [1] the test system is peripheral lymphocyte counts. As to the kind of experiment: Measurement of circulating lymphocytes after oral administration (mice). Conditions: Mus musculus, C57BL/6NCrl mice, 30 mg/kg p.o., 24 hours, vs mean counts of untreated animals, mean ± STDEV, read-out: Residual Lymphocyte Counts 24 hours after p.o. dosing. The class given is in vivo. The method, then: The compounds of the invention, e.g. compounds of formula (I) typically induce the depletion of blood lymphocyte as may be determined in the assay described below. Moreover, compounds of the invention, e.g. compounds of formula (I) are typically efficacious in the said assay also when administered via the per oral route of administration.
Measurement of Circulating Lymphocytes:
The test compounds (or salts thereof) are dissolved in a vehicle such as water, saline, PEG (polyethylene glycol) 200, or PBS (phosphate buffered saline). Adult mice (C57BU6NCrl strain, female, 18-20 g) or rats (Lewis strain, male, 6-12 weeks old) are administered up to 60 mg/kg of the test compounds in 10 ml/kg (C57BU6NCrl mice) or 2 ml/kg (Lewis rats) vehicle via per oral application. The vehicle or a reference salt and FTY720 (0.3 mg/kg) are used as negative and positive controls, respectively. Blood is collected from the sublingual vein at single time points, e.g. 14 or 24 hours after the test compound administration, under short isoflurane anesthesia. Two to three animals are used in each group. Whole blood samples are subjected to hematology analysis. Peripheral lymphocyte counts are determined using an automated analyzer. The Haemathology System uses a combination of light scatter, cytochemical staining and nuclear density on two independent channels to measure the total and differential white cell counts. The reduction of lymphocytes provoked by each test compound is calculated by comparing the lymphocyte counts measured after each treatment to the mean lymphocyte counts measured in five to eight untreated mice or rats, respectively. The data are presented as mean±STDEV.

`Cc1cc([C@H](Nc2ccc(C)c(CN3CC[C@@H](C(=O)O)C3)c2)C(F)(F)F)ccc1Cl` [Example 21, (R)-1-{5-[(S)-1-(4-Chloro-3-methyl-phenyl)-2,22-trifluoro-ethylamino]-2-methyl-benzyl}-pyrrolidine-3-carboxylic acid]: the IC50 on human S1P1 receptors came out at 1 nM. Further, in assay [1], the response vs control in vivo at 30 mg/kg worked out at 17.8%.

Consider `CC[C@@H](Nc1ccc(C)c(CN2CC[C@@H](C(=O)O)C2)c1)c1ccc(Cl)c(C)c1` [Example 23, (R)-1-{5-[(R)-1-(4-Chloro-3-methyl-phenyl)-propylamino]-2-methyl-benzyl}-pyrrolidine-3-carboxylic acid], for which, at human S1P1 receptors, the concentration for half-maximal inhibition (IC50) was found to be 1 nM. Also, the response vs control in vivo at 30 mg/kg in assay [1] was 25.1%. In the case of `Cc1cc([C@H](Nc2ccc(Cl)c(CN3CC[C@@H](C(=O)O)C3)c2)C(F)(F)F)ccc1Cl` [Example 29, (R)-1-{2-Chloro-5-[(S)-1-(4-chloro-3-methyl-phenyl)-2,2,2-trifluoro-ethylamino]-benzyl}-pyrrolidine-3-carboxylic acid], the IC50 on human S1P1 receptors worked out at 0.4 nM. Besides, in assay [1], the response vs control in vivo at 30 mg/kg amounted to 35.6%.

`Cc1cc([C@H](Nc2ccc(C)c(CN3CC(C(=O)O)C3)c2C)C(F)(F)F)ccc1Cl` [Example 31, 1-{3-[(S)-1-(4-Chloro-3-methyl-phenyl)-2,2,2-trifluoro-ethylamino]-2,6-dimethyl-benzyl}-azetidine-3-carboxylic acid]: the IC50 on human S1P1 receptors turned out to be 1 nM. Further, in assay [1], the response vs control in vivo at 30 mg/kg was 23.4%. On to `Cc1cc([C@H](Nc2ccc(Cl)c(CNCCC(=O)O)c2)C(F)(F)F)ccc1Cl` [Example 52, 3-{2-Chloro-5-[(S)-1-(4-chloro-3-methyl-phenyl)-2,2,2-trifluoro-ethylamino]-benzylamino}-propionic acid], for which, on human S1P1 receptors, the half-inhibitory concentration (IC50) is 0.9 nM. Turning to `CC[C@@H](Nc1cc(CN2CC(C(=O)O)C2)c(F)cn1)c1ccc(Cl)c(C)c1` [Example 54, 1-{2-[(R)-1-(4-Chloro-3-methyl-phenyl)-propylamino]-5-fluoro-pyridin-4-ylmethyl}-azetidine-3-carboxylic acid], the IC50 at human S1P1 receptors worked out at 0.9 nM. For `CC[C@@H](Nc1cc(CN2CCC(C)(C(=O)O)C2)c(Cl)cn1)c1ccc(Cl)c(C)c1` (stereo partly drawn) [Example 57, 1-{5-Chloro-2-[(R)-1-(4-chloro-3-methyl-phenyl)-propylamino]-pyridin-4-ylmethyl}-3-methyl-pyrrolidine-3-carboxylic acid], the IC50 on human S1P1 receptors was determined as 2.4 nM. For the compound `CC[C@@H](Nc1cc(CNCCC(=O)O)c(Cl)cn1)c1ccc(Cl)c(C)c1` [Example 58, 3-({5-Chloro-2-[(R)-1-(4-chloro-3-methyl-phenyl)-propylamino]-pyridin-4-ylmethyl}-amino)-propionic acid], the IC50 on human S1P1 receptors is 0.1 nM. On the same count and under the same terms, for `CC[C@@H](Nc1cc(CN2CC[C@@H](C(=O)O)C2)c(C)cn1)c1ccc(Cl)c(C)c1` [Example 60, (R)-1-{2-[(R)-1-(4-Chloro-3-methyl-phenyl)-propylamino]-5-methyl-pyridin-4-ylmethyl}-pyrrolidine-3-carboxylic acid] the value was 2.1 nM; for `Cc1cc([C@H](Nc2ccc(Cl)c(CN3CC(C(=O)O)C3)c2)C(C)C)ccc1Cl` [Example 63, 1-{2-Chloro-5-[(R)-1-(4-chloro-3-methyl-phenyl)-2-methyl-propylamino]-benzyl}-azetidine-3-carboxylic acid], 1.1 nM; for `Cc1cc([C@H](Nc2ccc(Cl)c(CN3CC(C(=O)O)C3)c2)C(C)C)cc(C)c1Cl` [Example 64, 1-{2-Chloro-5-[(R)-1-(4-chloro-3,5-dimethyl-phenyl)-2-methyl-propylamino]-benzyl}-azetidine-3-carboxylic acid], 1.7 nM. For `CC[C@@H](Nc1ccc(Cl)c(CN2CC(C)(C(=O)O)C2)c1)c1cc(C)c(Cl)c(C)c1` [Example 66, 1-{2-Chloro-5-[(R)-1-(4-chloro-3,5-dimethyl-phenyl)-propylamino]-benzyl}-3-methyl-azetidine-3-carboxylic acid], the response vs control in vivo at 30 mg/kg in assay [1] came to 19.4%.

As for `Cc1cc([C@H](Nc2cccc(CN3CC(C(=O)O)C3)c2)C(F)(F)F)ccc1Cl` [Example 67, 1-{3-[(S)-1-(4-Chloro-3-methyl-phenyl)-2,2,2-trifluoro-ethylamino]-benzyl}-azetidine-3-carboxylic acid], at human S1P1 receptors, the IC50 amounted to 0.8 nM. On the same count and under the same terms, for `Cc1cc([C@H](Nc2ccc(Cl)c(CN3CC(C(=O)O)C3)c2)C(F)(F)F)ccc1Cl` [Example 68] the value was 0.7 nM. Still for that read-out and setting: as for `Cc1cc([C@H](Nc2ccc(C(F)(F)F)c(CN3CC(C(=O)O)C3)c2)C(F)(F)F)ccc1Cl` [Example 69, 1-{5-[(S)-1-(4-Chloro-3-methyl-phenyl)-2,2,2-trifluoro-ethylamino]-2-trifluoromethyl-benzyl}-azetidine-3-carboxylic acid], the figure is 0.8 nM. On the same count and under the same terms, for `Cc1cc([C@H](Nc2ccc(Cl)c(CN3CCC(C(=O)O)C3)c2)C(F)(F)F)ccc1Cl` (stereo partly drawn) [Example 72, 1-{2-Chloro-5-[(S)-1-(4-chloro-3-methyl-phenyl)-2,2,2-trifluoro-ethylamino]-benzyl}-pyrrolidine-3-carboxylic acid] the value was 1.1 nM; for `CC[C@@H](Nc1cccc(CN2CC(C(=O)O)C2)n1)c1ccc(Cl)c(C)c1` [Example 74, 1-{6-[(R)-1-(4-Chloro-3-methyl-phenyl)-propylamino]-pyridin-2-ylmethyl}-azetidine-3-carboxylic acid], 14.1 nM. Turning to `CC[C@@H](Nc1cc(CN2CC(C(=O)O)C2)ccn1)c1ccc(Cl)c(C)c1` [Example 75, 1-{2-[(R)-1-(4-Chloro-3-methyl-phenyl)-propylamino]-pyridin-4-ylmethyl}-azetidine-3-carboxylic acid], the half-maximal inhibitory concentration (IC50) at human S1P1 receptors was 2.8 nM. Still for that read-out and setting: as for `Cc1cc([C@H](Nc2cccc(CN3CC(C(=O)O)C3)c2)C2CCC2)ccc1Cl` [Example 76, 1-(3-{[(R)-(4-Chloro-3-methyl-phenyl)-cyclobutyl-methyl]-amino}-benzyl)-azetidine-3-carboxylic acid], the figure is 5.7 nM; as for `CC[C@@H](Nc1ccnc(CN2CC(C(=O)O)C2)c1)c1ccc(Cl)c(C)c1` [Example 78, 1-{4-[(R)-1-(4-Chloro-3-methyl-phenyl)-propylamino]-pyridin-2-ylmethyl}-azetidine-3-carboxylic acid], 0.8 nM. Same read-out and setting: for `CC[C@@H](Nc1cc(CN2CC(C(=O)O)C2)c(Cl)cn1)c1ccc(Cl)c(C)c1` [Example 79, 1-{5-Chloro-2-[(R)-1-(4-chloro-3-methyl-phenyl)-propylamino]-pyridin-4-ylmethyl}-azetidine-3-carboxylic acid] the value was 0.6 nM. The same measure, in the same setting: for `CC[C@@H](Nc1ccc(C)c(CNCC(C)(C)C(=O)O)c1)c1cc(C)c(Cl)c(C)c1` [Example 80, 3-{5-[(R)-1-(4-Chloro-3,5-dimethyl-phenyl)-propylamino]-2-methyl-benzylamino}-2,2-dimethyl-propionic acid] the value was 24.5 nM. For the compound `CC[C@@H](Nc1ccc(C)c(CNC[C@H](C)C(=O)O)c1)c1cc(C)c(Cl)c(C)c1` [Example 81, (S)-3-{5-[(R)-1-(4-Chloro-3,5-dimethyl-phenyl)-propylamino]-2-methyl-benzylamino}-2-methyl-propionic acid], the IC50 on human S1P1 receptors came out at 3.9 nM. On the same count and under the same terms, as for `CC[C@@H](Nc1ccc(C)c(CN(C)CCC(=O)O)c1)c1cc(C)c(Cl)c(C)c1` [Example 82, 3-({5-[(R)-1-(4-Chloro-3,5-dimethyl-phenyl)-propylamino]-2-methyl-benzyl}-methyl-amino)-propionic acid], the figure is 3 nM; as for `Cc1cc([C@H](Nc2ccc(C)c(CN3CCC(C)(C(=O)O)C3)c2)C(F)(F)F)ccc1Cl` (stereo partly drawn) [Example 83, 1-{5-[(S)-1-(4-Chloro-3-methyl-phenyl)-2,2,2-trifluoro-ethylamino]-2-methyl-benzyl}-3-methyl-pyrrolidine-3-carboxylic acid], 2.9 nM.
